Experimental data taken from publication PMC3499525 (PLoS ONE, 2012).
Blank lines part the entries; values can stand above or below the compound they belong to.

How the values were obtained:
I1 imidazoline receptor = I1 imidazoline receptor binding assay ([3H]clonidine); conditions: [3H]clonidine 15 nM, bovine adrenal medulla glands
Description: (§4) The specific ligand binding to the receptors is defined as the difference between the total binding and the nonspecific binding determined in the presence of an excess of unlabelled ligand, as described in Table 1.
(§5) The specific ligand binding to the receptors is defined as the difference between the total binding and the nonspecific binding determined in the presence of an excess of unlabelled ligand (Table 1). The IC50 values (concentration causing a half-maximal inhibition of control specific binding) and Hill coefficients (nH) were determined by non-linear regression analysis of the competition curves generated with mean replicate values using Hill equation curve fitting [Y = D+((A – D)/(1+(C/C50) nH)], where Y = specific binding, D = minimum specific binding, A = maximum specific binding, C = compound concentration, C50 = IC50, and nH = slope factor). This analysis was performed using SigmaPlot ® 4.0 for Windows ® (© 1997 by SPSS Inc.). The inhibition constants (Ki) were calculated using the Cheng Prusoffequation [Ki = IC50/(1+(L/KD)], where L = concentration of radioligand in the assay, and KD = affinity of the radioligand for the receptor).

[1] = test system: cleaved caspase 3 in NRVM; assay: Cleaved caspase 3 in serum-deprived NRVM (Western blot); assay type: cell-based, rat; conditions: serum free medium, efaroxan 10 µM, TVP1022 20 µM
Protocol: NRVM cells were incubated in full serum medium for 24 h before replacing to serum free medium. […] A. Apoptotic nuclei were identified by TUNEL analysis. […] B. Representative Western blots and quantitative results of cleaved caspase 3 protein expression. The loading of the lanes was normalized to β-actin levels.
(§1) PC12 cells or NRVM cultures were resuspended in RIPA (20 mM Tris–HCl pH 7.4, 200 mM NaCl, 1% Triton-X 100, 0.1% SDS, 0.2% sodium deoxycholate, 5 mM EDTA) containing cocktail protease inhibitors (Roche, Basel Switzerland). The lysates were precleared by centrifugation. Protein content was determined using the Bradford method (Sigma Chemical Co. St. Louis, MO, USA).Equal amounts of sample were resolved on sodium dodecyl sulfate-polyacrylamide gel electrophoresis (SDS-PAGE) and blotted onto polyvinylidenedifluoride membranes (Millipore, Billerica, MA, USA). Membranes were treated with blocking buffer (5% dry milk, 0.05% Tween 20 in TBS). […] Quantification of the results was accomplished by measuring the optical density of the labeled bands from the autoradiograms, using the computerized imaging program Bio-1D (VilberLourmat Biotech. Bioprof., France). […]

[2] = test system: phosphorylated p42 and p44 MAPK in neonatal rat ventricular myocytes (NRVM); assay: p42/44 MAPK activation in NRVM (Western blot); assay type: cell-based
Protocol: PC12 cells originated from rat pheochromocytoma purchased from ATCC, were grown to confluence in T75 flasks, containing DMEM (1000 mg/l glucose) and supplemented with 5% fetal calf serum (FCS), 10% horse serum, and a mixture of 1% of penicillin/streptomycin/nystatin [11]. NRVM cultures were prepared from ventricles of 1–2 day old Sprague-Dawley rats, as previously described (ethics number Il-106-11-2007). […]
(§2) Phosphorylation of MAPK was analyzed in cell lysates and the loading of the lanes normalized to levels of non-phospho MAPK.
as §1, with “The lysates were precleared by centrifugation.” left out, “USA).” for “USA). Membranes were treated with blocking buffer (5% dry milk, 0.05% Tween 20 in TBS).”

[3] = test system: phosphorylated p42 and p44 MAPK in PC12 cells; assay: p42/44 MAPK activation in PC12 cells (Western blot); assay type: cell-based, rat
Protocol: as §2
(§3) PC12 cells originated from rat pheochromocytoma purchased from ATCC, were grown to confluence in T75 flasks, containing DMEM (1000 mg/l glucose) and supplemented with 5% fetal calf serum (FCS), 10% horse serum, and a mixture of 1% of penicillin/streptomycin/nystatin [11]. NRVM cultures were prepared from ventricles of 1–2 day old Sprague-Dawley rats, as previously described (ethics number Il-106-11-2007). Briefly, the ventricles of the excised hearts were dissociated with 0.1% RDB, a protease isolated from fig tree extract (Institute of Biology, Nes-Ziona,Israel), and the dispersed cells were resuspended in F-10 culture medium containing 1 mM CaCl2, 100 U/mL penicillin-streptomycin, 5% FCS, 5% donor horse serum, and 25 mg of bromodeoxyuridine (5-bromo-2′-deoxyuridine, BrdU).Cell cultures were incubated at 37°C in a humid 5% CO2-95% air environment. For all experiments, cells were initially seeded in full-serum cultured media and then replaced into serum-free media containing the respective supplements.
PC12 cells or NRVM cultures were resuspended in RIPA (20 mM Tris–HCl pH 7.4, 200 mM NaCl, 1% Triton-X 100, 0.1% SDS, 0.2% sodium deoxycholate, 5 mM EDTA) containing cocktail protease inhibitors (Roche, Basel Switzerland). The lysates were precleared by centrifugation. Protein content was determined using the Bradford method (Sigma Chemical Co. St. Louis, MO, USA).Equal amounts of sample were resolved on sodium dodecyl sulfate-polyacrylamide gel electrophoresis (SDS-PAGE) and blotted onto polyvinylidenedifluoride membranes (Millipore, Billerica, MA, USA). Membranes were treated with blocking buffer (5% dry milk, 0.05% Tween 20 in TBS). Primary antibodies were diluted in the blocking buffer and incubated with membranes for 20 h at 4°C followed by incubation (1 h at room temperature) in dilutions of horseradish peroxidase-conjugated secondary antibodies in the same buffer. Following antibody incubations, membranes were washed in 0.5% Tween 20 TBS. Detection was achieved using Western blotting ECL reagent (Amersham, Pharmacia, Little Chalfort Buckinghamshire, UK). Quantification of the results was accomplished by measuring the optical density of the labeled bands from the autoradiograms, using the computerized imaging program Bio-1D (VilberLourmat Biotech. Bioprof., France). The values were normalized to β-actin intensity levels.

[4] = test system: neonatal rat ventricular myocytes (NRVM); assay: Serum deprivation-induced apoptosis in NRVM (TUNEL); assay type: cell-based; conditions: serum free medium, efaroxan 10 µM pre-incubation, TVP1022 20 µM
Protocol: as §3, with “For all experiments, cells were initially seeded in full-serum cultured media and then replaced into serum-free media containing the respective supplements.” left out
In situ DNA fragmentation was performed by the terminal deoxynucleotidyl transferase-mediated deoxyuridine triphosphate-digoxigenin nick end labeling (TUNEL). […] Quantification of the apoptotic cells was calculated as the ratio of TUNEL-positive cells to the total number of cells in the same slide.
NRVM cells were incubated in full serum medium for 24 h before replacing to serum free medium. […] B. Representative Western blots and quantitative results of cleaved caspase 3 protein expression. […]

I2 imidazoline receptor = I2 imidazoline receptor binding assay ([3H]idazoxan); conditions: [3H]idazoxan 2 nM, rat cerebral cortex
Description: as §4, §5

IC50 (I1 imidazoline receptor; 60 min 22°C): 160 nM
Ki (I1 imidazoline receptor; Cheng Prusoff equation): 84 nM
SMILES: C1COC(NC(C2CC2)C2CC2)=N1 [rilmenidine, reference compound]

SMILES: CCC1(C2=NCCN2)Cc2ccccc2O1 (stereo not drawn) [efaroxan]
effect on TVP1022-suppressive effects on caspase 3 [1]: markedly reversed
effect on TVP1022-mediated increases in p42 and p44 MAPK phosphorylation ([2]; efaroxan 10 µM pre-incubation, TVP1022 10 and 20 µM): antagonized
effect on TVP1022-induced MAPK activation ([3]; efaroxan 10 µM pre-incubation 30 min, TVP1022 20 µM): abolished
effect on moxonidine-induced phosphorylation of p42 and p44 MAPK ([3]; efaroxan 10 µM pre-incubation, moxonidine 1 µM): abolished
effect on TVP1022-induced cytoprotective effect (TUNEL) [4]: markedly prevented

SMILES: COc1nc(C)nc(Cl)c1N=C1NCCN1 [monoxidine, moxonidine]
effect on phosphorylation of p42 and p44 MAPK ([3]; 1 µM, 30 min): increased

IC50 (I2 imidazoline receptor; 30 min 22°C): 16 nM
Ki (I2 imidazoline receptor; Cheng Prusoff equation): 10 nM
SMILES: c1ccc2c(c1)OCC(C1=NCCN1)O2 (stereo not drawn) [idazoxan, reference compound]

SMILES: COc1cccc(-c2cc(=O)c3ccccc3o2)c1N [PD98059]
effect on TVP1022-induced ERK phosphorylation ([2]; PD98059 30 µM pre-incubation 30 min): abolished
effect on TVP1022-induced increase of MAPK phosphorylation ([3]; PD98059 30 µM pretreatment 30 min, TVP1022 20 µM): significantly blocked
